Experimental data as given in BigSolDB 2.1.

O=c1[nH]cc(F)c(=O)[nH]1
solubility (mole fraction)
Settings | 283.15 K | 288.15 K | 293.15 K | 298.15 K | 303.15 K | 308.15 K | 313.15 K | 318.15 K | 323.15 K
in DMF | 0.00344 | 0.00452 | 0.00556 | 0.00658 | 0.00779 | 0.00923 | 0.0109 | 0.0127 | 0.0143
in acetic acid | 0.000413 | 0.000496 | 0.000592 | 0.000722 | 0.000891 | 0.0011 | 0.00134 | 0.0017 | 0.0022
in ethanol | 0.00202 | 0.00224 | 0.00245 | 0.00268 | 0.00301 | 0.00331 | 0.00369 | 0.00402 | 0.00451
in formic acid | 0.000481 | 0.000568 | 0.000675 | 0.000827 | 0.000988 | 0.00121 | 0.00147 | 0.00186 | 0.00238
in isobutanol | 0.000629 | 0.000731 | 0.000854 | 0.00101 | 0.0012 | 0.00143 | 0.00173 | 0.00213 | 0.00261
in isopentanol | 0.000714 | 0.000823 | 0.00095 | 0.00112 | 0.00132 | 0.00156 | 0.00188 | 0.00232 | 0.00276
in isopropanol | 0.000549 | 0.000647 | 0.000762 | 0.000908 | 0.00107 | 0.00132 | 0.00161 | 0.00195 | 0.00247
